From PubChem BioAssay (NCI) come the findings set out here.

Test systems include HCT-116 colon; MALME-3M melanoma; MCF7 breast; OVCAR-5 ovarian; SF-268 CNS; SK-MEL-2 melanoma; SK-MEL-5 melanoma; SNB-75 CNS; T-47D breast; TK-10 renal.
What all share (assay): growth of human tumour cells (NCI), 48 h

SMILES strings stand for the structures.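 Grown in 96-well plates, cells were treated for 48 hours with each compound at five concentrations. Insufficient inhibition: endpoint recorded as highest concentration tested. GI50 = concentration required for 50% inhibition of growth. TGI denotes the concentration required for complete inhibition of growth.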

`COc1c/c(=C2\C=c3ccccc3=N2)[nH]/c1=C\c1[nH]c(C)cc1C`: the GI50 in the experiment on HCT-116 colon was below 0.0368 µM; in the experiment on MALME-3M melanoma, 0.0328 µM; in the experiment with MCF7 breast it was 0.0464 µM; in the experiment with OVCAR-5 ovarian it was 0.25 µM; with SF-268 CNS it was 0.0631 µM; in the experiment with SK-MEL-2 melanoma it was 0.0753 µM. Moreover, the GI50 is below 0.0105 µM in the experiment on SK-MEL-5 melanoma, 0.175 µM in the experiment with SNB-75 CNS, below 0.0211 µM in the experiment with T-47D breast and 0.106 µM in the experiment on TK-10 renal. For the same compound, the TGI with HCT-116 colon is 1.71 µM; in the experiment with MCF7 breast, above 100 µM; in the experiment on OVCAR-5 ovarian, above 56.5 µM; in the experiment on SF-268 CNS, 37.7 µM; in the experiment on SK-MEL-2 melanoma it was 2.27 µM; in the experiment on SK-MEL-5 melanoma, 0.0352 µM. Further, the TGI in the experiment with SNB-75 CNS amounted to 4.19 µM; with T-47D breast, 6.05 µM; with TK-10 renal, 36.7 µM.
Turning to `Cc1ccc(O)c(NC(=O)c2cccc(Nc3ccnc(C(F)(F)F)c3)c2)c1`, the GI50 was 4.14 µM with HCT-116 colon; 19.2 µM in the experiment with MALME-3M melanoma; 4.21 µM with MCF7 breast; 13 µM in the experiment on OVCAR-5 ovarian; 13.3 µM with SF-268 CNS; 5.28 µM in the experiment with SK-MEL-2 melanoma. Besides, the GI50 in the experiment on SK-MEL-5 melanoma is 2.15 µM; in the experiment on SNB-75 CNS, 11.4 µM; in the experiment with T-47D breast, 2.29 µM; in the experiment with TK-10 renal it was 19.1 µM. Further, the TGI in the experiment with HCT-116 colon was determined as 17.8 µM; in the experiment with MALME-3M melanoma, 78.5 µM; in the experiment on MCF7 breast, 26.5 µM; in the experiment with OVCAR-5 ovarian it was 36 µM; in the experiment with SF-268 CNS, 39 µM; with SK-MEL-2 melanoma, 18.9 µM. Besides, the TGI with SK-MEL-5 melanoma worked out at 14 µM; with SNB-75 CNS, 25.3 µM; with T-47D breast it was 24 µM; in the experiment on TK-10 renal, 73.5 µM.
As to `Cc1cc2c(C(=O)NC[C@H](C)c3ccccc3)c(O)c(O)cc2c(O)c1-c1c(C)cc2c(C(=O)NC[C@H](C)c3ccccc3)c(O)c(O)cc2c1O`, the GI50 in the experiment with HCT-116 colon is 0.0346 µM; in the experiment with MALME-3M melanoma, 1.78 µM; in the experiment on MCF7 breast it was 0.0685 µM; in the experiment on OVCAR-5 ovarian, 0.503 µM; in the experiment with SF-268 CNS, 0.234 µM; with SK-MEL-2 melanoma, 0.596 µM. For the same compound, the GI50 is 0.447 µM in the experiment with SK-MEL-5 melanoma, 0.251 µM in the experiment with SNB-75 CNS, 0.284 µM in the experiment with T-47D breast and 0.298 µM in the experiment with TK-10 renal. The TGI in the experiment with HCT-116 colon was determined as 9.59 µM; in the experiment with MALME-3M melanoma, 7.23 µM; in the experiment with MCF7 breast it was 4.2 µM; in the experiment on OVCAR-5 ovarian it was 5.03 µM; in the experiment on SF-268 CNS, 3.7 µM; in the experiment on SK-MEL-2 melanoma it was 4.23 µM. Moreover, the TGI was 1.47 µM with SK-MEL-5 melanoma, 1.98 µM in the experiment with SNB-75 CNS, 1.34 µM with T-47D breast and 10.6 µM with TK-10 renal.
With `O=C1NC(=C(Cl)Cl)/C(=N/S(=O)(=O)N2CCCCC2)N1`, the GI50 was 1.85 µM with HCT-116 colon; 1.82 µM in the experiment with MALME-3M melanoma; 2.87 µM with MCF7 breast; 1.87 µM in the experiment on OVCAR-5 ovarian; 2.43 µM in the experiment with SF-268 CNS; 2.92 µM in the experiment on SK-MEL-2 melanoma. Also, the GI50 with SNB-75 CNS is 1.76 µM; in the experiment on T-47D breast, 5.94 µM; in the experiment on TK-10 renal it was 4.82 µM. In addition, the TGI is 3.39 µM in the experiment on HCT-116 colon; 3.49 µM in the experiment with MALME-3M melanoma; above 100 µM in the experiment on MCF7 breast; 3.63 µM in the experiment on OVCAR-5 ovarian; 6.53 µM in the experiment with SF-268 CNS; 7.72 µM in the experiment with SK-MEL-2 melanoma. Also, the TGI in the experiment with SNB-75 CNS was 3.77 µM; with T-47D breast it was 64.5 µM; in the experiment on TK-10 renal it was above 100 µM.
As to `COc1ccc(C(=O)C(CN(C)C)CN(C)C)cc1`, the GI50 in the experiment with HCT-116 colon was 1.3 µM; with MCF7 breast, 2.73 µM; in the experiment on OVCAR-5 ovarian, 12.6 µM; in the experiment on SF-268 CNS, 13.7 µM; with SK-MEL-2 melanoma, 16.7 µM; with SK-MEL-5 melanoma, 15.3 µM. In addition, the GI50 is 11.4 µM in the experiment with SNB-75 CNS, 1.86 µM in the experiment on T-47D breast and 2.32 µM in the experiment with TK-10 renal. The TGI in the experiment with HCT-116 colon stood at 2.63 µM; in the experiment on MCF7 breast, 12.3 µM; in the experiment with OVCAR-5 ovarian it was 30.8 µM; in the experiment on SF-268 CNS it was 42.3 µM; in the experiment on SK-MEL-2 melanoma it was 36.8 µM; in the experiment with SK-MEL-5 melanoma, 29 µM. The TGI with SNB-75 CNS came out at 26.5 µM; in the experiment with T-47D breast it was 5.28 µM; in the experiment with TK-10 renal it was 6.98 µM.
For `C=C(c1ccc(OC)c(/C=C/C(=O)c2ccc3c(c2)OCO3)c1)c1cc(OC)c(OC)c(OC)c1`, the GI50 with MALME-3M melanoma was above 100 µM; in the experiment with MCF7 breast, 0.913 µM; in the experiment on OVCAR-5 ovarian, 4.4 µM; in the experiment on SF-268 CNS it was 3.18 µM; with SK-MEL-2 melanoma, 4.25 µM; with SK-MEL-5 melanoma, 1.97 µM. The GI50 in the experiment on SNB-75 CNS is 1.64 µM; in the experiment on T-47D breast it was 2.66 µM; in the experiment on TK-10 renal, 4.79 µM. For the same compound, the TGI with MALME-3M melanoma is above 100 µM; in the experiment on MCF7 breast it was above 100 µM; in the experiment with OVCAR-5 ovarian, above 100 µM; with SF-268 CNS it was above 100 µM; with SK-MEL-2 melanoma, above 100 µM; in the experiment with SK-MEL-5 melanoma, 6.71 µM. In addition, the TGI is 7.08 µM in the experiment with SNB-75 CNS, above 100 µM with T-47D breast and above 100 µM in the experiment with TK-10 renal.
In the case of `OCC1C(OCc2ccccc2)C(OCc2ccccc2)C(OCc2ccccc2)CN1Cc1ccccc1` (centres undefined), the TGI in the experiment with HCT-116 colon is 81.5 µM; in the experiment on MALME-3M melanoma, 91.5 µM; in the experiment with MCF7 breast, 43.9 µM; in the experiment with OVCAR-5 ovarian it was above 100 µM; with SF-268 CNS, above 100 µM; in the experiment on SNB-75 CNS it was 31.2 µM. Besides, the TGI in the experiment on T-47D breast and in the experiment on TK-10 renal was above 100 µM throughout.
For the compound `C[C@@H](Oc1cc(-n2cnc3ccc(OC4CCN(C)CC4)cc32)sc1C(N)=O)c1ccccc1Cl`, the GI50 in the experiment on HCT-116 colon was 0.0156 µM; in the experiment on MALME-3M melanoma, 3.89 µM; in the experiment on MCF7 breast, 0.00884 µM; with OVCAR-5 ovarian, 0.024 µM; in the experiment with SF-268 CNS, 0.022 µM; in the experiment on SK-MEL-5 melanoma it was 0.0306 µM. Besides, the figures for the GI50 in the experiment on SNB-75 CNS, with T-47D breast and in the experiment on TK-10 renal were 0.0614 µM, 3.57 µM and 1.79 µM, respectively. For the same compound, the TGI in the experiment on HCT-116 colon is 3.15 µM; in the experiment on MALME-3M melanoma, 7.89 µM; in the experiment with MCF7 breast, 3.92 µM; in the experiment with OVCAR-5 ovarian, 5.76 µM; with SF-268 CNS, 4.69 µM; in the experiment on SK-MEL-5 melanoma it was 0.777 µM. The TGI amounted to 2.89 µM with SNB-75 CNS, 8.73 µM in the experiment with T-47D breast and 5.75 µM in the experiment on TK-10 renal.
